Assay results from PMC10096376, “Insecticidal and Synergistic Potential of Three Monoterpenoids against the Yellow Fever Mosquito, Aedes aegypti (Diptera: Culicidae), and the House Fly, Musca domestica (Diptera: Muscidae)” (Molecules, 2023).
“And” between values parts separate entries of the source, which are not always exact repeats. Equal entries are not always repeated. Where two headings read alike, the source gives them in different places.

Legend:
[1] = system: Musca domestica; assay: Co-toxicity assay with permethrin (topical); format: in vivo
Protocol: […]. Each dose was formulated in a total volume of 1.5 mL of acetone. A dose of permethrin that produced approximately 50% mortality (18 ng) was used as the treatment. Female flies were sorted into groups of 20 per synergism assay and dosed as previously mentioned (i.e., the same way as in the topical toxicity assays). Flies were assessed for mortality at 24 h.

[2] = system: Aedes aegypti; assay: Co-toxicity assay with permethrin (topical); conditions: for 1-h knockdown Co-Toxicity Factor / 24-h mortality Co-Toxicity Factor: >+20 potentiation, <−20 antagonism, −20 to +20 additive
Protocol: (§1) For Ae. aegypti, synergism assays were performed similar to the topical applications described previously, with the following modifications: 2 doses (2 µg/mosquito and 10 µg/mosquito) of each monoterpenoid were applied as synergists, similar to previous studies exploring the synergistic potential of natural products in combination with an intermediate dose-level of insecticide alone.
(§2) Mosquitoes were transferred to deli cups and kept at a controlled temperature and humidity (the same conditions as described for the topical application of insecticides and monoterpenoids alone). Again, a minimum of 3 separate rearing cohorts were used among replicates of each dose combination.
(§3) Dose responses were modeled via probit analysis, and their resulting estimates were obtained. […] A control correction option (OPTC command) was used to account for responses to the vehicle control treatments. Co-toxicity values were calculated by the method of [29]. A co-toxicity factor of >+20 signifies potentiation, <−20 antagonism, and −20 to +20 additive.

[3] = system: rat; conditions: in vivo; cited from earlier work
[4] = system: Aedes aegypti; conditions: for LD10 (95% CI) / LD50 (95% CI) / LD90 (95% CI): 24 h, topical, adult females, susceptible strain
[5] = system: rat; conditions: cited from earlier work
[6] = cited from earlier work
[7] = system: Musca domestica
[8] = under a mercury lamp; cited from earlier work
[9] = system: Aedes aegypti; conditions: for 1-h knockdown Co-Toxicity Factor / 24-h mortality Co-Toxicity Factor / 48-h mortality Co-Toxicity Factor: >+20 potentiation, <−20 antagonism, −20 to +20 additive
Protocol: as §1, §2, §3

[10] = molecular target: acetylcholinesterase (Musca domestica, UniProt Q7YWJ9); assay: In vitro inhibition of acetylcholinesterase (Ellman), head homogenate; format: biochemical
Protocol: (§4) Acetylcholinesterase inhibition was conducted on homogenates of whole-body Ae. aegypti and M. domestica heads using Ellman’s method. For Ae. aegypti, 10 whole female adults were placed in 2 mL microcentrifuge screw cap tubes with 3–5.2 mm zircon/silica beads and homogenized in 500 μL of sodium phosphate buffer (100 mM, pH 7.8) using a Precellys Evolution bead beater (Bertin Corp., Rockville, MD, USA) set to two 15-s pulses of 5600 rpm. Afterward, 500 μL of Triton X-100 buffer (100 mM sodium phosphate, pH 7.8, 0.6% Triton X-100) was added to each tube (final Triton X-100 concentration: 0.3%), inverted several times to mix up the sample, and then centrifuged at 10,000× g for 4 min at 4 °C. The supernatant was used as the enzyme source. The same process was carried out with M. domestica, except three heads were processed in a 1000:1000 μL sodium phosphate buffer and Triton X-100 buffer in the same manner as just described.
Concentration responses were conducted in the wells of a 96-well, clear, flat-bottomed plate. Inhibitor solutions of methomyl or monoterpenoids were first dissolved in DMSO (dimethyl sulfoxide) and then diluted in sodium phosphate buffer (100 mM, pH 7.8, DMSO concentration of 1%). A volume of 10 μL of the inhibitor solution was added to each well, along with 90 μL of sodium phosphate buffer, and finally 10 μL of homogenate. This was incubated on a plate shaker at 400 rpm for 10 min at room temperature. The final concentrations for methomyl were 100 μM, 10 μM, 1 μM, 100 nM, 10 nM, 1 nM, and 0 nM. For the monoterpenoids, the same range was used except the top concentration was 1 mM and the bottom non-zero concentration was 10 nM. The final concentration of DMSO in all wells was 0.09%.
After the 10-min incubation, 100 μL of Ellman’s reagent prepared in sodium phosphate buffer and each corresponding inhibitor concentration were added to the wells using a multichannel pipette.
as §3

[11] = system: rabbit; conditions: ref 32,33 (L-fenchone), 35,36 (Permethrin), 37 (Methomyl); cited from earlier work
[12] = molecular target: T1, acetylcholinesterase (Aedes aegypti, UniProt Q6A2E2); assay: In vitro inhibition of acetylcholinesterase (Ellman), whole-body homogenate; format: biochemical; conditions: Ae. aegypti preparation, corrected for total protein; read-out: IC50 (95% CI)
T1 construct: The supernatant was used as the enzyme source; from tissue; host or cells: whole bodies of adult female Aedes aegypti, Orlando strain; Triton X-100 supernatant
Protocol: as §4
Concentration responses were conducted in the wells of a 96-well, clear, flat-bottomed plate. Inhibitor solutions of methomyl or monoterpenoids were first dissolved in DMSO (dimethyl sulfoxide) and then diluted in sodium phosphate buffer (100 mM, pH 7.8, DMSO concentration of 1%). […]
Dose responses were modeled via probit analysis, and their resulting estimates were obtained. […] Co-toxicity values were calculated by the method of [29]. […]

[13] = 10.2 μg PBO, 70 μg carvone, 190 μg menthone, 80 μg fenchone per fly
[14] = near-sublethal synergist dose + permethrin, >+20 potentiation, <−20 antagonism, −20 to +20 additive
[15] = 10 μg synergist per Ae. aegypti
[16] = 24 h, topical, adult females, susceptible strain

T1 sequence (Q6A2E2 1-702): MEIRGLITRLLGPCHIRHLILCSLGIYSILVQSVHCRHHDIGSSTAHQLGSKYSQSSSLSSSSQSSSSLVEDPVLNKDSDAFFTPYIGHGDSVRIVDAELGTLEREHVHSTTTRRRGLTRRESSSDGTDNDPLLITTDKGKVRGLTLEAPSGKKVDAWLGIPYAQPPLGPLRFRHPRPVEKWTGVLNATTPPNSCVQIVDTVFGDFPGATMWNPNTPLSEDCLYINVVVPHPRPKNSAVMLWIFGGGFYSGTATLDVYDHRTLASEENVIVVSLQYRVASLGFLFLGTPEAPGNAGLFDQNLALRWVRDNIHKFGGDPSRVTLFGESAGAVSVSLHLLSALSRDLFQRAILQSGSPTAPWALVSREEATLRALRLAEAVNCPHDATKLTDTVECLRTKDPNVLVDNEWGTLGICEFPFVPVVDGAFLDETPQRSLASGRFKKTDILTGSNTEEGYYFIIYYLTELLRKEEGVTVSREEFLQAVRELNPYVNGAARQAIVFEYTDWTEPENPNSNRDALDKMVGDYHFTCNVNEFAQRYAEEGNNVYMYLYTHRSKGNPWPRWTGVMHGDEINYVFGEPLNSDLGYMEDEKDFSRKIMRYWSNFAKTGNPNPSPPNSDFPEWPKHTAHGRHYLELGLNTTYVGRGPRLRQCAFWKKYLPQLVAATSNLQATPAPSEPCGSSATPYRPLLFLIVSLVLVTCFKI
Chain of acetylcholinesterase (Musca domestica, UniProt Q7YWJ9) (Q7YWJ9 81-660): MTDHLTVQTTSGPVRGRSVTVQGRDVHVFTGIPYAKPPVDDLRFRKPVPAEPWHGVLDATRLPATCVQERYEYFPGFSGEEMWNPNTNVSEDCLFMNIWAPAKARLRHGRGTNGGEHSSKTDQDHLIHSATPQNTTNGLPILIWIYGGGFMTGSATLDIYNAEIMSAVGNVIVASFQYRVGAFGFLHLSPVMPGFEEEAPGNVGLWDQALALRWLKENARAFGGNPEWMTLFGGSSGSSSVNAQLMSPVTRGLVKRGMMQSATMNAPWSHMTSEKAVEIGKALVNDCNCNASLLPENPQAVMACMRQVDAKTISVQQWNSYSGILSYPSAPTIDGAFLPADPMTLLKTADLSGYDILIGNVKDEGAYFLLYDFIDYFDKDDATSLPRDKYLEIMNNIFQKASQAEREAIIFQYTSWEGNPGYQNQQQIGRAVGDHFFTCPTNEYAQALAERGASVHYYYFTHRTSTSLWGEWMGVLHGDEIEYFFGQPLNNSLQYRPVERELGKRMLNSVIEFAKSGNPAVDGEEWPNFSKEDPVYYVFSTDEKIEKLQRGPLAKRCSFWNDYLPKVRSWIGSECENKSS

Structure (SMILES): C=C(C)[C@@H]1CC=C(C)C(=O)C1 [Carvone, L-carvone]
- 1-h% Mean Knockdown ± SEM, Synergist Alone [1, 13]: 16 ± 11.8%
- 24-h% Mean Mortality ± SEM, Synergist Alone [1, 13]: 0 ± 0%
- times as potent a synergist of permethrin as PBO ([1]; 24-h mortality): 1.2
- 1-h% Mean Knockdown ± SEM, Mixture ([1]; near-sublethal synergist dose (10.2 μg PBO, 70 μg carvone, 190 μg menthone, 80 μg fenchone) + permethrin 18 ng): 100 ± 0%
- 1-h knockdown Co-Toxicity Factor [1, 14]: 3.2
- 24-h mortality Co-Toxicity Factor [1, 14]: 65.6
- 1-h% Mean Knockdown ± SEM, Mixture ([2]; 2 μg synergist + permethrin 0.6 ng/mosquito): 100 ± 0%
- 1-h knockdown Co-Toxicity Factor ([2]; 2 μg synergist + permethrin): 23.5
- 24-h mortality Co-Toxicity Factor ([2]; 2 μg synergist + permethrin): 83
- 1-h% Mean Knockdown ± SEM, Synergist Alone ([2]; 2 μg synergist per Ae. aegypti): 5 ± 5%
- 24-h% Mean Mortality ± SEM, Synergist Alone ([2]; 2 μg synergist per Ae. aegypti): 5 ± 2.9%
- 1-h% Mean Knockdown ± SEM, Mixture ([2]; 10 μg synergist + permethrin 0.6 ng/mosquito): 100 ± 0%
- 1-h knockdown Co-Toxicity Factor ([2]; 10 μg synergist + permethrin): 4
- 24-h mortality Co-Toxicity Factor ([2]; 10 μg synergist + permethrin): 76
- 1-h% Mean Knockdown ± SEM, Synergist Alone [2, 15]: 20 ± 5.8%
- 24-h% Mean Mortality ± SEM, Synergist Alone [2, 15]: 7.5 ± 2.5%
- times as strong a synergist of permethrin as PBO ([2]; 24-h mortality, 2 μg synergist): 3.3
- Oral LD50 [3]: 5400 (rt) mg compound per kg body weight
- LD10 (95% CI) [4]: 3900 (1900–5200) b ng/mg body weight
- LD50 (95% CI) [4]: 7300 (6700–7900) c ng/mg body weight
- LD90 (95% CI) [4]: 14,200 (11,000–26,600) c ng/mg body weight
- times as toxic as fenchone ([4]; at LD10): about 1.9
- times as toxic as fenchone ([4]; at LD50): about 1.5
- times as toxic as fenchone ([4]; at LD90): about 3.0
- Dermal LD50 [5]: >4000 (rt) mg compound per kg body weight
- half-life ([6]; acidic conditions): ≤ 108 h
- LD10 (95% CI) [7, 16]: 3300 (3100–3400) b ng/mg body weight
- LD50 (95% CI) [7, 16]: 4300 (4200–4400) b ng/mg body weight
- LD90 (95% CI) [7, 16]: 5600 (5300–5900) b ng/mg body weight
- times as toxic as fenchone ([7]; at LD10): 2.7
- times as toxic as menthone ([7]; at LD10): 1.6
- times as toxic as fenchone ([7]; at LD50): 3.1
- times as toxic as menthone ([7]; at LD50): 1.6
- times as toxic as fenchone ([7]; at LD90): 3.6
- times as toxic as menthone ([7]; at LD90): 1.6
- half-life [8]: 23 to 27.8 h
- 1-h% Mean Knockdown ± SEM, Synergist Alone ([9]; 2 μg applied): 5 ± 5%
- 24-h% Mean Mortality ± SEM, Synergist Alone ([9]; 2 μg applied): 5 ± 2.9%
- 48-h% Mean Mortality ± SEM, Synergist Alone ([9]; 2 μg applied): 5 ± 2.9%
- 1-h% Mean Knockdown ± SEM, Mixture ([9]; 2 μg synergist + methomyl 6 ng/mosquito): 96.7 ± 3.3%
- 1-h knockdown Co-Toxicity Factor ([9]; 2 μg synergist + methomyl): 4.5
- 24-h mortality Co-Toxicity Factor ([9]; 2 μg synergist + methomyl): 23
- 48-h mortality Co-Toxicity Factor ([9]; 2 μg synergist + methomyl): 24
- 1-h% Mean Knockdown ± SEM, Synergist Alone ([9]; 10 μg applied): 20 ± 5.8%
- 24-h% Mean Mortality ± SEM, Synergist Alone ([9]; 10 μg applied): 7.5 ± 2.5%
- 48-h% Mean Mortality ± SEM, Synergist Alone ([9]; 10 μg applied): 15 ± 2.9%
- 1-h% Mean Knockdown ± SEM, Mixture ([9]; 10 μg synergist + methomyl 6 ng/mosquito): 100 ± 0%
- 1-h knockdown Co-Toxicity Factor ([9]; 10 μg synergist + methomyl): −7
- 24-h mortality Co-Toxicity Factor ([9]; 10 μg synergist + methomyl): 28
- 48-h mortality Co-Toxicity Factor ([9]; 10 μg synergist + methomyl): 8
- times as effective a synergist of methomyl as PBO ([9]; 24-h mortality, 2 μg synergist): 1.7
- inhibition of AChE ([10]; at 1 mM, M. domestica preparation): 11.1 ± 2.9%

Structure (SMILES): CNC(=O)ON=C(C)SC [Methomyl, methomyl, reference compound]
- Oral LD50 [3]: 17–24 (rt) mg compound per kg body weight
- LD10 (95% CI) [4]: 0.97 (0.27–1.6) a ng/mg body weight
- LD50 (95% CI) [4]: 2.7 (1.6–4.3) b ng/mg body weight
- LD90 (95% CI) [4]: 7.55 (4.7–22.5) b ng/mg body weight
- Dermal LD50 [11]: 5880 (rb) mg compound per kg body weight
- aerobic soil half-life [6]: approximately 14 d
- LD50 ([7]; topical, sufficient toxicity not observed at highest doses applied): > 100 ng
- IC50 [12]: 2500 nM and 1700 nM
- 1-h% Mean Knockdown ± SEM, Methomyl Alone ([9]; methomyl 6 ng/mosquito): 87.5 ± 9.5%
- 24-h% Mean Mortality ± SEM, Methomyl Alone ([9]; methomyl 6 ng/mosquito): 57.5 ± 25.3%
- 48-h% Mean Mortality ± SEM, Methomyl Alone ([9]; methomyl 6 ng/mosquito): 65 ± 21.8%
- inhibition at 100 µM ([10]; at 100 µM, preparation not given, follows the M. domestica values, read-out: inhibition of AChE): 99.4 ± 0.1%
